# Measurements published in patent US20130289099A1, “ABCG1 GENE AS A MARKER AND A TARGET GENE FOR TREATING OBESITY” (UNIVERSITE PIERRE ET MARIE CURIE (PARIS 6), priority 2010, published 2013).
# {P} = phosphate
# Experiments:
# [1] = test system: human monocyte-derived macrophages (HMDM); experiment: VLDL-induced cellular triglyceride and cholesterol accumulation in HMDM; format: cell-based; conditions: 50 μg/mL VLDL, 24 h
# Protocol: (§1) Quantification of total cellular triglyceride and cholesterol mass was performed as previously described (Milosavljevic et al., 2003).
# (§2) Ten-day differentiated HMDM were grown in 24-well plates and transfected with 50 nM control siRNA (Dharmacon) or siRNA targeting human ABCG1 using lipofectamine RNAiMax (Invitrogen) according to the manufacturer's instructions. Transfection of 3T3-L1 preadipocytes and mature adipocytes with siRNA was achieved using the Nucleofector® technology (Lonza) according to the manufacturer's protocol. For each experiment, 2×10^6 cells and 100 pmol siRNA were diluted in 100 μl of V solution and processed with A-033 program.
# [2] = test system: human ABCG1; experiment: siRNA silencing of ABCG1 in HMDM, Western blot of total ABCG1 protein; format: cell-based; conditions: HMDM transfected with 50 nM siRNA vs control siRNA
# Protocol: (§3) Human Macrophages. Human THP-1 monocytic cells (ATCC) and a THP-1 clone stably transfected with an shRNA targeting human ABCG1, in which ABCG1 expression is stably knocked down (ABCG1 SKD), were cultured and differentiated into macrophage-like cells as previously described (Larrede et al., 2009). Circulating human monocytes were isolated from the blood of individual healthy normolipidemic donors (Etablissement Français du Sang, EFS) on Ficoll gradients (Ficoll-Paque PLUS, GE Healthcare) and subsequently differentiated into human macrophages (HMDM) following the procedure previously reported (Larrede et al., 2009).
# Silencing of ABCG1 expression was performed by application of siRNA oligonucleotides (Dharmacon) targeted to the cDNA sequence of either the human ABCG1 gene (Genebank #AY048757):
# Ten-day differentiated HMDM were grown in 24-well plates and transfected with 50 nM control siRNA (Dharmacon) or siRNA targeting human ABCG1 using lipofectamine RNAiMax (Invitrogen) according to the manufacturer's instructions. […]
# Cell proteins were extracted using 200 μL M-PER reagent (Pierce) containing protease inhibitors and were subsequently separated on a 4-12% Bis-Tris gel (Invitrogen). […] ABCG1 was detected using rabbit anti-hABCG1 (NB400-132; Novus) at 1:500 and goat anti-rabbit/HRP (Dako) at 1:15000.
# [3] = test system: LPL; experiment: Secreted LPL activity in culture media of HMDM after heparin; format: cell-based, human; conditions: ABCG1 KD HMDM, after heparin treatment, p=0.02
# Protocol: as §3
# (§4) Cell culture medium from either macrophage or adipocyte cultures was replaced by a serum-free medium containing 10 U/mL heparin (Choay) and the cells were subsequently incubated for 24 h at 37° C. Culture medium was then collected and stored at −80° C. until determination of LPL activity and cells were lysed overnight in 0.2 N NaOH. Cell protein was quantified using the BCA assay (Pierce). LPL activity was determined using a 50-μl aliquot of culture medium ( 1/10 of total volume), or plasma when indicated, according to the procedure previously described (Stengel et al., 1998). Results are expressed as units of LPL activity (1 U of LPL activity correspond to 1 nmol free fatty acid liberated/min/mg cell protein). […]
# [4] = test system: LPL mRNA; experiment: LPL mRNA levels by real-time quantitative PCR in HMDM; format: cell-based, human; conditions: ABCG1 KD HMDM, p<0.05
# Protocol: as §2
# (§5) Twenty-four hours following transfection with siRNA, Control and ABCG1 KD cells were washed twice with cold PBS and total RNA was extracted using a NucleoSpin RNA II kit (Macherey-Nagel) according to the manufacturer's instructions. Reverse transcription of RNA and real time quantitative PCR using a LightCycler LC480 (Roche) were performed as previously described (Larrede et al., 2009). Expression data were based on the crossing points calculated with the software for LightCycler data analysis and corrected for PCR efficiencies of the target and the reference gene. When indicated, data were expressed as a fold change in mRNA expression relative to control values.
# [5] = test system: LPL; experiment: Confocal microscopy of LPL at the cell surface of HMDM; format: cell-based, human; conditions: ABCG1 KD HMDM vs control
# Protocol: Cells were blocked for 60 minutes with 3% BSA in PBS and then incubated with an anti-hLPL antibody (Abcam; 1:300) overnight at 4° C. After washing, a biotinylated goat anti-mouse IgG secondary antibody (1:1000; BD Pharmingen) was added, followed by the addition of streptavidin-horseradish peroxidase. The signal was enhanced using the tyramide signal amplification (TSA) kit (PerkinElmer) according to the manufacturer's protocol; cells were counterstained for nuclei with DAPI (Invitrogen). Confocal microscopy was performed using a Right confocal microscope Olympus FV-1000 with a 60× objective.
# [6] = test system: LPL; experiment: Flow cytometry of cell surface LPL in THP-1 macrophages; format: cell-based, human; conditions: ABCG1 KD THP-1 macrophages, p<0.05
# Protocol: as §3
# Human THP-1 macrophages were cultured in 12-well plates (2.106 cells/well) and incubated in serum-free media in the presence or in the absence of 10 U/mL heparin (Choay) for 24 h at 37° C. following siRNA transfection. Cells were then washed and harvested in cold PBS. After brief centrifugation (2000 rpm, […]) at 4° C., cells were pre-incubated with 100 μl of human Fc Blocker (BD Pharmingen; 1:400 in PBS/BSA 1%) for 10 min at 4° C., and incubated with a monoclonal mouse antibody directed against human LPL (abcam; 1:100) for a further 15 min at 4° C. […] Cells were analyzed on an FC 500 flow cytometer (Beckman Coulter) using Epics XL32 software.
# [7] = test system: SDC1, SDC2, VLDL-r, LRP, apoE, LDL-r; experiment: Relative mRNA levels of proteoglycan core proteins, lipoprotein receptors and apoE in HMDM; format: cell-based, human
# Protocol: as §2, §5
# [8] = test system: ABCG1; experiment: ABCG1 knockdown efficiency (mRNA) in 3T3-L1 adipocytes; format: cell-based, mouse; conditions: mature 3T3-L1 adipocytes, p<0.0005
# Protocol: 3T3-L1 adipocytes. The 3T3-L1 preadipocytes (ATCC) were maintained in Dulbecco's modified Eagle medium (DMEM) supplemented with 10% calf serum and 2 mM glutamine. Differentiation of confluent preadipocytes was initiated with 250 nM insulin, 1250 nM dexamethasone and 250 μM 3-isobutyl-methyl-1-xanthine) in DMEM (4.5 g/L glucose) supplemented with 10% FBS. After 3 days, the culture medium was switched to DMEM (4.5 g/L glucose) supplemented with 10% FBS and 100 nM Insulin for 2 days. Then, 3T3-adipocytes were allowed to mature in DMEM (4.5 g/L glucose) containing 10% FBS, which was replaced every other day for 15 days. […]
# as §5
# [9] = test system: LPL; experiment: Secreted LPL activity in culture media of 3T3-L1 adipocytes; format: cell-based, mouse; conditions: ABCG1 KD 3T3-L1 adipocytes, p<0.05
# Protocol: (§6) 3T3-L1 adipocytes. The 3T3-L1 preadipocytes (ATCC) were maintained in Dulbecco's modified Eagle medium (DMEM) supplemented with 10% calf serum and 2 mM glutamine. Differentiation of confluent preadipocytes was initiated with 250 nM insulin, 1250 nM dexamethasone and 250 μM 3-isobutyl-methyl-1-xanthine) in DMEM (4.5 g/L glucose) supplemented with 10% FBS. After 3 days, the culture medium was switched to DMEM (4.5 g/L glucose) supplemented with 10% FBS and 100 nM Insulin for 2 days. Then, 3T3-adipocytes were allowed to mature in DMEM (4.5 g/L glucose) containing 10% FBS, which was replaced every other day for 15 days.
# as §4
# [10] = test system: 3T3-L1 preadipocytes; experiment: Cellular triglyceride content during maturation of 3T3-L1 preadipocytes into adipocytes; format: cell-based, mouse; conditions: silencing in preadipocytes at D0; after 4 days of differentiation, p<0.05
# Protocol: as §6, §1, §2
compound,measurement,setting,value
"CCCCCCCCCCC[C@@H](C[C@@H]1OC(=O)[C@H]1CCCCCC)OC(=O)[C@H](CC(C)C)NC=O [THL, Tetrahydrolipstatin, reference compound]","TC accumulation induced by VLDL, change","[1]; control HMDM, 10 μM THL",−75%
same,"TG accumulation induced by VLDL, change","[1]; control HMDM, 10 μM THL",−43%
"5′-UCAUUGGCCUGCUGUACUU-UU-3 / 5′-P-AAGUACAGCAGGCCAAUGA-UU-3′ (sense UCAUUGGCCUGCUGUACUUUU; antisense AAGUACAGCAGGCCAAUGAUU; siRNA; sense: RNA, backbone not given here; antisense: RNA, 5' {P}, backbone not given here) [siRNA specific for the human ABCG1 gene]","ABCG1 expression (total ABCG1 protein, Western blot)",[2],almost complete abolition
same,"secreted LPL activity, change vs control HMDM",[3],−52%
same,"LPL expression (mRNA), change vs control HMDM",[4],+28%
same,abundance of LPL detected at the cell surface after heparin treatment,[5]; 10 U/mL heparin,still remained higher than that in control HMDM
same,LPL expression at the cell surface (confocal microscopy),[5]; without heparin,much more pronounced than in control cells
same,"expression of LPL at the cell surface (flow cytometry), change vs control cells",[6],+48%
same,VLDL-induced accumulation of cholesterol,[1]; ABCG1 KD HMDM,completely abolished
same,"VLDL-induced accumulation of TG, change vs control cells","[1]; ABCG1 KD HMDM, p<0.01",−38%
same,"relative mRNA levels of SDC1, SDC2, VLDL-r, LRP and apoE",[7]; ABCG1 KD human macrophages vs control,not altered
same,"LDL-receptor (LDL-r) expression, induction vs control cells","[7]; ABCG1 KD macrophages, p<0.01",2 fold
"5′-GCGAAGCUGUACCUGGAUU-UU / 5′-P-AAUCCAGGUACAGCUUCGC-UU-3′ (sense GCGAAGCUGUACCUGGAUUUU; antisense AAUCCAGGUACAGCUUCGCUU; siRNA; sense: RNA, backbone not given here; antisense: RNA, 5' {P}, backbone not given here) [siRNA targeting mouse Abcg1]","inhibition of ABCG1 (mRNA), change vs control",[8],−77%
same,"LPL activity in media, change vs control cells",[9],−81%
same,"intracellular TG accumulation during adipocyte maturation, change vs control cells",[10],−22%
